In paper PMC11672637, “7-O-Carboxylic Acid-Substituted 3-O-Alkyl Difluoroquercetin; An Aztreonam-Potentiating Agent Against Carbapenemase-Producing Pseudomonas aeruginosa Through Simultaneous Inhibition of Metallo-β-Lactamase and Efflux Pump” (Antibiotics, 2024):
In brackets after ≈: the same amount, converted by molar mass. Where two headings read alike, the source gives them in different places.

Key:
[1] = system: ATM-Resistant CPPA (n = 15); assay: MIC distribution over clinical isolates; format: cell-based, P. aeruginosa; details: Pseudomonas aeruginosa
[2] = system: PA-009, blaGES; assay: MIC / checkerboard with ATM; format: cell-based, P. aeruginosa; design: key to Susceptibility category: S: susceptible; I: intermediate; R: resistant
[3] = system: PA-044, blaNDM; assay: MIC / checkerboard with ATM; format: cell-based, P. aeruginosa; design: key to Susceptibility category: S: susceptible; I: intermediate; R: resistant
[4] = system: PA-016, blaIMP; assay: MIC / checkerboard with ATM; format: cell-based, P. aeruginosa; design: key to Susceptibility category: S: susceptible; I: intermediate; R: resistant
[5] = system: NDM-1-Producing P. aeruginosa (PA-017, blaNDM); assay: MIC / checkerboard with ATM; format: cell-based; design: key to Susceptibility category: S: susceptible; I: intermediate; R: resistant; details: PA-017
[6] = system: PA-042, blaIMP/NDM; assay: MIC / checkerboard with ATM; format: cell-based, P. aeruginosa; design: key to Susceptibility category: S: susceptible; I: intermediate; R: resistant; details: for MIC: Pseudomonas aeruginosa
[7] = system: PA-040, blaNDM; assay: MIC / checkerboard with ATM; format: cell-based, P. aeruginosa; design: key to Susceptibility category: S: susceptible; I: intermediate; R: resistant; details: for MIC: Pseudomonas aeruginosa
[8] = system: PA-026, blaNDM; assay: MIC / checkerboard with ATM; format: cell-based, P. aeruginosa; design: key to Susceptibility category: S: susceptible; I: intermediate; R: resistant
[9] = system: PA-038, blaNDM; assay: MIC / checkerboard with ATM; format: cell-based, P. aeruginosa; design: key to Susceptibility category: S: susceptible; I: intermediate; R: resistant; details: PA-038
[10] = system: PA-021, blaIMP; assay: MIC / checkerboard with ATM; format: cell-based, P. aeruginosa; design: key to Susceptibility category: S: susceptible; I: intermediate; R: resistant; details: for MIC: Pseudomonas aeruginosa

In the case of `C[C@H]1[C@H](NC(=O)/C(=N\OC(C)(C)C(=O)O)c2csc(N)n2)C(=O)N1S(=O)(=O)O` [ATM, aztreonam], the MIC50 ([1]; read-out: MIC50 of ATM, 5 at 0 mg/L) is reported as 16 µg/mL (≈ 36.7 µM), the MIC90 ([1]; read-out: MIC90 of ATM, 5 at 0 mg/L) is reported as 64 µg/mL (≈ 147 µM) and the “Susceptibility to ATM” value ([2]; PA-009, ATM alone) is reported as “R (R (resistant, MIC ≥ 32 mg/L))”. The Susceptibility category ([2]; PA-009, Table S2) was “R”, the MIC ([2]; Pseudomonas aeruginosa, read-out: MIC of ATM, PA-009, ATM alone (5 at 0 mg/L)) was 32 µg/mL and the “Susceptibility to ATM” value ([3]; PA-044, ATM alone) was “I (I (intermediate, MIC = 16 mg/L))”. The Susceptibility category ([3]; PA-044, Table S2) was “I”, the MIC ([3]; Pseudomonas aeruginosa, read-out: MIC of ATM, PA-044, ATM alone (5 at 0 mg/L)) was 16 µg/mL and the “Susceptibility to ATM” value ([4]; PA-016, ATM alone) was “R (R (resistant, MIC ≥ 32 mg/L))”. The Susceptibility category ([4]; PA-016, Table S2) was “R”, the MIC ([4]; Pseudomonas aeruginosa, read-out: MIC of ATM, PA-016, ATM alone (5 at 0 mg/L)) was 32 µg/mL and the “Susceptibility to ATM” value ([5]; ATM alone) was “I (I (intermediate, MIC = 16 mg/L))”. The Susceptibility category ([5]; Table S2) was “I”, the “Susceptibility to ATM” value ([6]; PA-042, ATM alone) was “S (S (sensitive, MIC ≤ 8 mg/L))” and the Susceptibility category ([6]; PA-042, Table S2) was “S”. The MIC ([6]; PA-042, Table S2, read-out: MIC value) was 2 µg/mL, the MIC ([6]; read-out: MIC of ATM, PA-042, ATM alone (5 at 0 mg/L)) was 2 µg/mL and the “Susceptibility to ATM” value ([7]; PA-040, ATM alone) was “S (S (sensitive, MIC ≤ 8 mg/L))”. For the same molecule, the Susceptibility category ([7]; PA-040, Table S2) was “S”, the MIC ([7]; PA-040, Table S2, read-out: MIC value) was 4 µg/mL and the MIC ([7]; read-out: MIC of ATM, PA-040, ATM alone (5 at 0 mg/L)) was 4 µg/mL. For the same molecule, the “Susceptibility to ATM” value ([8]; PA-026, ATM alone) was “S (S (sensitive, MIC ≤ 8 mg/L))”, the Susceptibility category ([8]; PA-026, Table S2) was “S” and the MIC ([8]; Pseudomonas aeruginosa, read-out: MIC of ATM, PA-026, ATM alone (5 at 0 mg/L)) was 8 µg/mL. For the same molecule, the “Susceptibility to ATM” value ([9]; ATM alone) was “I (I (intermediate, MIC = 16 mg/L))”, the Susceptibility category ([9]; Table S2) was “I” and the “Susceptibility to ATM” value ([10]; PA-021, ATM alone) was “S (S (sensitive, MIC ≤ 8 mg/L))”. The Susceptibility category ([10]; PA-021, Table S2) was “S”, the MIC ([10]; PA-021, Table S2, read-out: MIC value) was 1 µg/mL and the MIC ([10]; read-out: MIC of ATM, PA-021, ATM alone (5 at 0 mg/L)) was 1 µg/mL.
